# Source: patent US9458101B2 (priority 2009, dated 2016)
# What was measured:
# [1] = system: A549 (Human lung carcinoma); test: Cytotoxicity testing (MTS) on A549; type: cell-based
# Protocol: (§1) Cell lines used were A549 (Human lung carcinoma), HeLa (Human cervical carcinoma), MCF-7 (Human mammary gland adenocarcinoma), CEM (Human T-lymphoblastoid from ALL (Acute lymphoblastic leukemia)), M010B (Human glioma), M006X (Human glioma) and Jurkat (Human T-cell leukemia).
# (§2) A series of dilutions were prepared and a wavelength scan of the diluted solution was used to determine the wavelength of maximum absorbance for each compound. Five standardized drug concentrations were scanned at this pre-determined wavelength to obtain an estimate of the compound's extinction coefficient.
# (§3) A primary MTS assay was used to test the optimal number of cells for cytotoxicity assays. Cells were trypsinized, counted and introduced into seven lanes of a 96-well plate at different cell numbers (eight replicates per lane). Optimal cell numbers were determined after 72 and 96 hours of growth and were used in subsequent cytotoxicity assays. […] Cell viability was determined using the Cell Titer 96 AQueous One Solution Cell Proliferation Assay (Promega, U.S.A.).
# (§4) Fits were performed using a dose-response model ideal for data showing an initial response plateau, a transition region, and a final response plateau.
# (§5) [formula] […] Itop is the response obtained at very low/no drug concentration. The data and all parameters were normalized to Itop−Ibot, a measure of the maximum effect of the drug.
# [2] = system: HeLa (Human cervical carcinoma); test: Cytotoxicity testing (MTS) on HeLa; type: cell-based
# Protocol: as §1, §2, §3, §4, §5
# [3] = system: MCF-7 (Human mammary gland adenocarcinoma); test: Cytotoxicity testing (MTS) on MCF-7; type: cell-based
# Protocol: as §1, §2, §3, §4, §5
# [4] = system: CEM (Human T-lymphoblastoid from ALL); test: Cytotoxicity testing (MTS) on CEM; type: cell-based
# Protocol: as §1, §2, §3, §4, §5
# M010B (Human glioma) = test: Cytotoxicity testing (MTS) on M010B; type: cell-based
# Protocol: as §1, §2, §3, §4, §5
# M006X (Human glioma) = test: Cytotoxicity testing (MTS) on M006X; type: cell-based
# Protocol: as §1, §2, §3, §4, §5
# [5] = system: A549, HeLa, MCF-7 and CEM cell lines; test: Cytotoxicity, mean over A549, HeLa, MCF-7 and CEM cell lines; conditions: for IC50 [log10 M] (mean logIC50): mean over A549, HeLa, MCF-7 and CEM cell lines; for average IC50 values compared with colchicine: average values of Table 3; for cytotoxicity compared with colchicine: cytotoxicity assays
# Source text: as §1, §3, §5
# Cytotoxicity screening was performed on a number of cell lines based on the cancer of origin and differing morphologies.
Structure (SMILES),Fraction of cells that survive at the highest drug concentrations (Ibot) [1],Fraction of cells that survive at the highest drug concentrations (Ibot) [2],Fraction of cells that survive at the highest drug concentrations (Ibot) [3],Fraction of cells that survive at the highest drug concentrations (Ibot) [4],Fraction of cells that survive at the highest drug concentrations (Ibot) (M010B (Human glioma)),Fraction of cells that survive at the highest drug concentrations (Ibot) (M006X (Human glioma)),logIC50 [1] [log10 M],logIC50 [2] [log10 M],logIC50 [3] [log10 M],logIC50 [4] [log10 M],IC50 [log10 M] (mean logIC50) [5],logIC50 (M010B (Human glioma)) [log10 M],logIC50 (M006X (Human glioma)) [log10 M],average IC50 values compared with colchicine [5],cytotoxicity compared with colchicine [5],"IC50 ([5]; cytotoxicity experiments, most potent derivative) [nM]"
"COc1cc2c(c(OC)c1OC)-c1ccc(OC)c(=O)cc1[C@@H](NC(C)=O)CC2 [Colchicine, N-[(7S)-1,2,3,10-tetramethoxy-9-oxo-5,6,7,9-tetrahydrobenzo[α]heptalen-7-yl]acetamide, reference compound]",0.118 ± 0.042,0.061 ± 0.048,0.377 ± 0.010,0.016 ± 0.021,0.107 ± 0.017,0.026 ± 0.005,–,–,–,–,–,–,–,–,–,–
"COc1cc2c(c(OC(C)=O)c1OC)-c1ccc(OC)c(=O)cc1[C@@H](NC(C)=O)CC2 [Compound 2, N-[(7S)-2,3,10-trimethoxy-1-((methyl)carbonyloxy)-9-oxo-5,6,7,9-tetrahydrobenzo[α]heptalen-7-yl]acetamide]",0.283 ± 0.022,0.074 ± 0.031,0.424 ± 0.019,0.027 ± 0.021,–,–,−5.89 ± 0.06,−6.48 ± 0.13,−6.32 ± 0.10,−6.65 ± 0.08,−6.34 ± 0.09,–,–,–,–,–
"COc1cc2c(c(O)c1OC)-c1ccc(OC)c(=O)cc1[C@@H](NC(C)=O)CC2 [Compound 3, N-[(7S)-1-hydroxy-2,3,10-trimethoxy-9-oxo-5,6,7,9-tetrahydrobenzo[α]heptalen-7-yl]acetamide]",0.235 ± 0.048,–,0.518 ± 0.033,–,–,–,−5.29 ± 0.11,–,−5.25 ± 0.10,–,–,–,–,–,–,–
"CCC(=O)Oc1c(OC)c(OC)cc2c1-c1ccc(OC)c(=O)cc1[C@@H](NC(C)=O)CC2 [Compound 4, N-[(7S)-1-((ethyl)carbonyloxy)-2,3,10-trimethoxy-9-oxo-5,6,7,9-tetrahydrobenzo[α]heptalen-7-yl]cetamide]",0.332 ± 0.028,0.058 ± 0.048,0.399 ± 0.021,−0.031 ± 0.049,–,–,−5.07 ± 0.04,−5.41 ± 0.13,−5.23 ± 0.07,−5.39 ± 0.11,−5.27 ± 0.09,–,–,–,–,–
"COc1cc2c(c(OC(=O)C(C)C)c1OC)-c1ccc(OC)c(=O)cc1[C@@H](NC(C)=O)CC2 [Compound 5, N-[(7S)-1-(((methyl)ethyl)carbonyloxy)-2,3,10-trimethoxy-9-oxo-5,6,7,9-tetrahydrobenzo [α]heptalen-7-yl]acetamide]",0.265 ± 0.043,0.025 ± 0.044,0.451 ± 0.025,−0.003 ± 0.048,0.258 ± 0.024,0.031 ± 0.018,−5.09 ± 0.06,−5.46 ± 0.13,−5.25 ± 0.08,−5.51 ± 0.13,−5.33 ± 0.10,−5.22 ± 0.06,−6.12 ± 0.04,–,–,–
"COc1cc2c(c(OC(C)C)c1OC)-c1ccc(OC)c(=O)cc1[C@@H](NC(C)=O)CC2 [Compound 7, N-[(7S)-1-(ethoxy-1-methyl)-2,3,10-trimethoxy-9-oxo-5,6,7,9-tetrahydrobenzo[α]heptalen-7-yl]acetamide]",0.229 ± 0.014,0.066 ± 0.022,0.464 ± 0.009,0.000 ± 0.014,–,–,−7.66 ± 0.08,−8.25 ± 0.09,−8.10 ± 0.05,−8.49 ± 0.10,−8.12 ± 0.08,–,–,stronger than colchicine,moderately better than colchicine,–
"COc1cc2c(c(OCC(C)C)c1OC)-c1ccc(OC)c(=O)cc1[C@@H](NC(C)=O)CC2 [Compound 7a, N-[(7S)-2,3,10-trimethoxy-1-(2-methylpropoxy)-9-oxo-5,6,7,9-tetrahydrobenzo[α]heptalen-7-yl]acetamide]",0.222 ± 0.026,0.051 ± 0.032,0.406 ± 0.014,0.022 ± 0.020,0.239 ± 0.031,0.197 ± 0.024,−6.52 ± 0.13,−6.66 ± 0.11,−6.17 ± 0.06,−6.76 ± 0.08,−6.53 ± 0.10,−6.60 ± 0.14,−7.12 ± 0.06,–,moderately better than colchicine,–
"CCCOc1c(OC)c(OC)cc2c1-c1ccc(OC)c(=O)cc1[C@@H](NC(C)=O)CC2 [Compound 8, N-[(7S)-2,3,10-trimethoxy-9-oxo-1-(propanoxy)-5,6,7,9-tetrahydrobenzo[α]heptalen-7-yl]acetamide]",0.246 ± 0.013,0.044 ± 0.020,0.433 ± 0.013,0.000 ± 0.013,0.181 ± 0.020,0.072 ± 0.014,−7.80 ± 0.07,−7.68 ± 0.09,−7.50 ± 0.12,−8.48 ± 0.10,−7.86 ± 0.10,−7.49 ± 0.13,−7.98 ± 0.03,–,moderately better than colchicine,–
"COc1c(O)cc2c(c1OC)-c1ccc(SC)c(=O)cc1[C@@H](NC(C)=O)CC2 [Compound 40, N-[(7S)-3-hydroxy-1,2-dimethoxy-3-hydroxy-10-methylsulfanyl-9-oxo-5,6,7,9-tetrahydrobenzo[α]heptalen-7-yl]acetamide]",–,–,–,–,–,–,–,–,–,–,–,–,–,–,consistently the most effective,–
"C=CCOc1cc2c(c(OC)c1OC)-c1ccc(SC)c(=O)cc1[C@@H](NC(C)=O)CC2 [Compound 41, N-[(7S)-1,2-dimethoxy-10-methylsulfanyl-9-oxo-3-(prop(2-en)oxy)-5,6,7,9-tetrahydrobenzo[α]heptalen-7-yl]acetamide]",0.243 ± 0.012,0.039 ± 0.016,0.472 ± 0.016,−0.050 ± 0.022,–,–,−8.50 ± 0.11,−8.45 ± 0.11,−8.31 ± 0.12,−8.29 ± 0.10,−8.39 ± 0.11,–,–,stronger than colchicine,–,–
"CCCOc1cc2c(c(OC)c1OC)-c1ccc(SC)c(=O)cc1[C@@H](NC(C)=O)CC2 [Compound 43, N-[(7S)-3-propoxy-1,2-dimethoxy-10-methylsulfanyl-9-oxo-5,6,7,9-tetrahydrobenzo[α]heptalen-7-yl]acetamide]",0.198 ± 0.024,0.025 ± 0.025,0.399 ± 0.015,0.010 ± 0.014,0.214 ± 0.022,–,−8.76 ± 0.11,−8.66 ± 0.12,−8.71 ± 0.10,−8.55 ± 0.09,−8.67 ± 0.11,−8.51 ± 0.15,–,stronger than colchicine,consistently the most effective,2.13 ± 0.77
COc1c(O)cc2c(c1OC)-c1ccc(OC)c(=O)cc1[C@@H](NC(C)=O)CC2 [Compound 50],–,–,–,–,–,–,–,–,–,–,–,–,–,–,consistently the most effective,–
